Data published in patent publication US20260015350A1, “AZAQUINAZOLINE PAN-KRAS INHIBITORS” (Mirati Therapeutics, Inc., priority 2022, published 2026).

Columns and labels:
[1] = biological target: T1, KRas^G12D (Homo sapiens, UniProt P01116, G12D); test: KRas binding assay (TR-FRET tracer displacement), KRas G12D
T1 construct: Biotinylated KRas (corresponding to amino acids 1-169, produced at Accelegan Inc.); biotin (biotinylated); purchased Accelegan Inc

[2] = biological target: T2, KRas^G12R (Homo sapiens, UniProt P01116, G12R); test: KRas binding assay (TR-FRET tracer displacement), KRas G12R
T2 construct: Biotinylated KRas (corresponding to amino acids 1-169, produced at Accelegan Inc.); biotin (biotinylated); purchased Accelegan Inc
T2 sequence (P01116 1-169 isoform P01116-2 G12R): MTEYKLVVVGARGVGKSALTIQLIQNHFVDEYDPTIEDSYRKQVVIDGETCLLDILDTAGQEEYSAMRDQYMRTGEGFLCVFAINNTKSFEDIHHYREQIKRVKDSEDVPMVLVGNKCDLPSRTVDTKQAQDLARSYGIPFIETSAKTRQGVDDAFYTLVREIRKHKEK

[3] = biological target: T3, KRas^G12V (Homo sapiens, UniProt P01116, G12V); test: KRas binding assay (TR-FRET tracer displacement), KRas G12V
T3 construct: Biotinylated KRas (corresponding to amino acids 1-169, produced at Accelegan Inc.); biotin (biotinylated); purchased Accelegan Inc
T3 sequence (P01116 1-169 isoform P01116-2 G12V): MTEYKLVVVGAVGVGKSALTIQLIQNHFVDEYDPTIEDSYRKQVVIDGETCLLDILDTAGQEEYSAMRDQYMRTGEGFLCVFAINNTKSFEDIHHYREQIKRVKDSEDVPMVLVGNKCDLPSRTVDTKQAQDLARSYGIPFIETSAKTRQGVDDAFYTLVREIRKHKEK

[4] = test system: KRas-mediated phosphorylation of ERK in AsPC-1 cells; test: Inhibition of KRas-mediated phosphorylation of ERK (Cisbio HTRF pERK), AsPC-1 cells; assay type: cell-based; conditions: Homo sapiens, ASPC1, AsPC-1 cells; HTRF pERK
Procedure: (§1) Inhibition of KRas Phosphorylation of ERK (HTRF) by Exemplary Compounds of Formula (I) Cisbio HTRF Advanced PERK Assay Catalog #64[…] […] Add 10 mL of media to stop trypsinizing. Pipette the cells into a conical bottom 50 mL centrifuge tube and centrifuge 5 min×1000 rpm. […] Re-suspend the cell pellet in media, take a cell count, and then adjust the cell density using fresh media. […] Seed 6,000 cells into cell culture plate with 50 μL media. […] Use Tecan to complete the compound addition. Compounds start from 10 uM top, 3-fold dilution, and 10 doses. The final DMSO concentration is 0.8%. Dispensed 0.2 uM Trametinib as Min control. […] Incubate cell plate for 3 hrs in the incubator. […] Dilute 1 volume of 4× lysis buffer with 3 volumes of deionized water. […] Keep lysis buffer on the ice. […] At the end of the compound treatment, flick-off the media. […] Add 35 μL of lysis buffer per well using a Multidrop Combi. Then place on a plate agitator shaking at 300 rpm at 4° C. for 40 mins. […] Make up the HTRF antibody buffer. For each assay plate, mix 50 μL of d2-conjugate antibody with 950 μL of detection buffer. Similarly, mix 50 μL of Cryptate antibody with 950 μL of detection buffer. Then mix the two diluted antibodies together. […] Dispense 3.4 μL the antibody buffer to wells of an empty assay plate. Seal the plate and centrifuge plate 30 sec×1000 rpm. […] At the end of the 4° C. lysis, centrifuge the lysate plates 3 mins×1500 rpm. […] Use the Bravo to transfer 13.6 μL of lysate from cell culture plate to assay plate. Then incubate assay plate for 2 hrs at room temperature. 8. At the end of incubation, read plate on the Envision after centrifuging plate 30 sec×1000 rpm.

[5] = test system: KRas-mediated phosphorylation of ERK in H727 cells; test: Inhibition of KRas-mediated phosphorylation of ERK (Cisbio HTRF pERK), H727 cells; assay type: cell-based; conditions: Homo sapiens, NCI-H727, H727 cells; HTRF pERK
Procedure: as §1

T1 sequence (P01116 1-169 isoform P01116-2 G12D): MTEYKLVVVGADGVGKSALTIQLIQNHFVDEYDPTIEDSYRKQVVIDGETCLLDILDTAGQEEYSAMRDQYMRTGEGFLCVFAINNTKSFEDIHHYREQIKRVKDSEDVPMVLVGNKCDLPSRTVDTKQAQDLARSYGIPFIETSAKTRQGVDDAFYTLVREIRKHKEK

Row | IC50 [1] | IC50 [2] | IC50 [3] | IC50 [4] | IC50 [5] | SMILES
1 | > 100000 nM | 27500 nM | 42800 nM |  |  | CCc1cccc2cccc(-c3ncc4c(C5CCCOCC5)nc(OCC56CCCN5CCC6)nc4c3F)c12 (racemic) [Example 723, rac-(R)-7-(8-ethylnaphthalen-1-yl)-8-fluoro-4-(oxepan-4-yl)-2-((tetrahydro-1H-pyrrolizin-7a(5H)-yl)methoxy)pyrido[4,3-d]pyrimidine]
2 | > 100000 nM | > 100000 nM | 70900 nM |  |  | Fc1c(-c2cccc3cccc(F)c23)ncc2c(C3=CCCCC3)nc(OCC34CCCN3CCC4)nc12 [Example 524, 4-(cyclohex-1-en-1-yl)-8-fluoro-7-(8-fluoronaphthalen-1-yl)-2-((hexahydro-1H-pyrrolizin-7a-yl)methoxy)pyrido[4,3-d]pyrimidine]
3 | 4970 nM | 656 nM | 431 nM |  |  | CCc1c(F)ccc2cc(O)cc(-c3ncc4c(CCc5ccnn5C)nc(OC[C@@]56CCCN5C[C@H](F)C6)nc4c3F)c12 [Example 545, 5-ethyl-6-fluoro-4-(8-fluoro-2-(((2R,7aS)-2-fluorotetrahydro-1H-pyrrolizin-7a(5H)-yl)methoxy)-4-(2-(1-methyl-1H-pyrazol-5-yl)ethyl)pyrido[4,3-d]pyrimidin-7-yl)naphthalen-2-ol]
4 |  |  |  | 3620 nM | 1140 nM | CCc1c(F)ccc2cc(O)cc(-c3ncc4c(N5CCCC(C6CCNC6=O)C5)nc(OC[C@@]56CCCN5C[C@H](F)C6)nc4c3F)c12 (stereo partly drawn) [Example 616, 3-(1-(7-(8-ethyl-7-fluoro-3-hydroxynaphthalen-1-yl)-8-fluoro-2-(((2R,7aS)-2-fluorohexahydro-1H-pyrrolizin-7a-yl)methoxy)pyrido[4,3-d]pyrimidin-4-yl)piperidin-3-yl)pyrrolidin-2-one]
5 |  |  |  | > 10000 nM | > 10000 nM | CCc1c(F)ccc2cc(O)cc(-c3ncc4c(N5CC6OCCN(C(C)=O)C6C5)nc(OC[C@@]56CCCN5C[C@H](F)C6)nc4c3F)c12 (stereo partly drawn) [Example 623, 1-(6-(7-(8-ethyl-7-fluoro-3-hydroxynaphthalen-1-yl)-8-fluoro-2-(((2R,7aS)-2-fluorotetrahydro-1H-pyrrolizin-7a(5H)-yl)methoxy)pyrido[4,3-d]pyrimidin-4-yl)hexahydropyrrolo[3,4-b][1,4]oxazin-4(4aH)-yl) ethan-1-one]
6 | 85 nM | 38 nM | 9 nM |  |  | CCc1c(F)ccc2cc(O)cc(-c3ncc4c(NCc5c[nH]nc5NC(=O)C5COC5)nc(OC[C@@]56CCCN5C[C@H](F)C6)nc4c3F)c12 [Example 649, N-(4-(((7-(8-ethyl-7-fluoro-3-hydroxynaphthalen-1-yl)-8-fluoro-2-(((2R,7aS)-2-fluorohexahydro-1H-pyrrolizin-7a-yl)methoxy)pyrido[4,3-d]pyrimidin-4-yl)amino)methyl)-1H-pyrazol-3-yl) oxetane-3-carboxamide]
7 | 224 nM | 65 nM | 7 nM |  |  | CCc1c(F)ccc2cc(O)cc(-c3ncc4c(NCc5cc(C(=O)N(C)C)n(CC#N)n5)nc(OC[C@@]56CCCN5C[C@H](F)C6)nc4c3F)c12 [Example 658, 1-(cyanomethyl)-3-(((7-(8-ethyl-7-fluoro-3-hydroxynaphthalen-1-yl)-8-fluoro-2-(((2R,7aS)-2-fluorotetrahydro-1H-pyrrolizin-7a(5H)-yl)methoxy)pyrido[4,3-d]pyrimidin-4-yl)amino)methyl)-N,N-dimethyl-1H-pyrazole-5-carboxamide]
8 |  |  |  | > 10000 nM | 4510 nM | CCc1c(F)ccc2cc(O)cc(-c3ncc4c(NCc5cc(C(=O)N(C)C)nn5CCC#N)nc(OC[C@@]56CCCN5C[C@H](F)C6)nc4c3F)c12 [Example 669, 1-(2-cyanoethyl)-5-(((7-(8-ethyl-7-fluoro-3-hydroxynaphthalen-1-yl)-8-fluoro-2-(((2R,7aS)-2-fluorohexahydro-1H-pyrrolizin-7a-yl)methoxy)pyrido[4,3-d]pyrimidin-4-yl)amino)methyl)-N,N-dimethyl-1H-pyrazole-3-carboxamide]
9 |  |  |  | > 10000 nM | > 10000 nM | CCc1c(F)ccc2cc(O)cc(-c3ncc4c(NCc5cc(C(=O)N(C)C)nn5CC5COC5)nc(OC[C@@]56CCCN5C[C@H](F)C6)nc4c3F)c12 [Example 683, 5-(((7-(8-ethyl-7-fluoro-3-hydroxynaphthalen-1-yl)-8-fluoro-2-(((2R,7aS)-2-fluorohexahydro-1H-pyrrolizin-7a-yl)methoxy)pyrido[4,3-d]pyrimidin-4-yl)amino)methyl)-N,N-dimethyl-1-(oxetan-3-ylmethyl)-1H-pyrazole-3-carboxamide]
10 |  |  |  | > 10000 nM | > 10000 nM | CCc1c(F)ccc2cc(O)cc(-c3ncc4c(NCc5cc(C(=O)N(C)C)n(CC6COC6)n5)nc(OC[C@@]56CCCN5C[C@H](F)C6)nc4c3F)c12 [Example 684A, 3-(((7-(8-ethyl-7-fluoro-3-hydroxynaphthalen-1-yl)-8-fluoro-2-(((2R,7aS)-2-fluorohexahydro-1H-pyrrolizin-7a-yl)methoxy)pyrido[4,3-d]pyrimidin-4-yl)amino)methyl)-N,N-dimethyl-1-(oxetan-3-ylmethyl)-1H-pyrazole-5-carboxamide]
11 |  |  |  | > 10000 nM | 7030 nM | CCc1c(F)ccc2cc(O)cc(-c3ncc4c(NCc5cc(C(=O)N(C)C)n(C6CS(=O)(=O)C6)n5)nc(OC[C@@]56CCCN5C[C@H](F)C6)nc4c3F)c12 [Example 692, 1-(1,1-dioxidothietan-3-yl)-3-(((7-(8-ethyl-7-fluoro-3-hydroxynaphthalen-1-yl)-8-fluoro-2-(((2R,7aS)-2-fluorohexahydro-1H-pyrrolizin-7a-yl)methoxy)pyrido[4,3-d]pyrimidin-4-yl)amino)methyl)-N,N-dimethyl-1H-pyrazole-5-carboxamide]
12 | > 100000 nM | 30000 nM | 42900 nM |  |  | CCc1cccc2cccc(-c3ncc4c(C5CCCCC5)nc(OCC56CCCN5CCC6)nc4c3F)c12 [Example 722, 4-cyclohexyl-7-(8-ethylnaphthalen-1-yl)-8-fluoro-2-((hexahydro-1H-pyrrolizin-7a-yl)methoxy)pyrido[4,3-d]pyrimidine]
13 |  |  |  | 747 nM | 516 nM | CCc1c(F)ccc2cccc(-c3ncc4c(N5C[C@@H]6C[C@H](C5)[C@H](O)C6)nc(OC[C@@]56CCCN5C[C@H](F)C6)nc4c3F)c12 [Example 754, (1R,5R,6R)-3-(7-(8-ethyl-7-fluoronaphthalen-1-yl)-8-fluoro-2-(((2R,7aS)-2-fluorohexahydro-1H-pyrrolizin-7a-yl)methoxy)pyrido[4,3-d]pyrimidin-4-yl)-3-azabicyclo[3.2.1]octan-6-ol]
14 | 4190 nM | 1320 nM | 1050 nM |  |  | CCc1c(F)ccc2cc(OC)cc(-c3ncc4c(N5C[C@@H]6C[C@H](C5)[C@H](O)C6)nc(OC[C@@]56CCCN5C[C@H](F)C6)nc4c3F)c12 [Example 777, (1R,5R,6R)-3-(7-(8-ethyl-7-fluoro-3-methoxynaphthalen-1-yl)-8-fluoro-2-(((2R,7aS)-2-fluorohexahydro-1H-pyrrolizin-7a-yl)methoxy)pyrido[4,3-d]pyrimidin-4-yl)-3-azabicyclo[3.2.1]octan-6-ol]
15 | 1130 nM | 86 nM | 24 nM |  |  | CCc1c(F)ccc2cc(O)cc(-c3ncc4c(NCc5cn(C(=O)N(C)C)nc5NC(=O)C5CCC5O)nc(OC[C@@]56CCCN5C[C@H](F)C6)nc4c3F)c12 (stereo partly drawn) [Example 819, 4-(((7-(8-ethyl-7-fluoro-3-hydroxynaphthalen-1-yl)-8-fluoro-2-(((2R,7aS)-2-fluorotetrahydro-1H-pyrrolizin-7a(5H)-yl)methoxy)pyrido[4,3-d]pyrimidin-4-yl)amino)methyl)-3-(2-hydroxycyclobutane-1-carboxamido)-N,N-dimethyl-1H-pyrazole-1-carboxamide]
16 | 66900 nM | 62900 nM | 34000 nM |  |  | O[C@@H]1C[C@H]2C[C@@H]1CN(c1nc(OC[C@@]34CCCN3C[C@H](F)C4)nc3c(F)c(-c4cccc5cc(C(F)F)ccc45)ncc13)C2 [Example 841, (1R,5R,6R)-3-(7-(6-(difluoromethyl)naphthalen-1-yl)-8-fluoro-2-(((2R,7aS)-2-fluorotetrahydro-1H-pyrrolizin-7a(5H)-yl)methoxy)pyrido[4,3-d]pyrimidin-4-yl)-3-azabicyclo[3.2.1]octan-6-ol]
